Results reported in paper PMC6572064, “Discovery of 2-(1-(3-(4-Chloroxyphenyl)-3-oxo- propyl)pyrrolidine-3-yl)-1H-benzo[d]imidazole-4-carboxamide: A Potent Poly(ADP-ribose) Polymerase (PARP) Inhibitor for Treatment of Cancer” (Molecules, 2019).
Where two headings read alike, the source gives them in different places.

Legend:
PARP-2 = biological target: T1, PARP-2 (Homo sapiens, UniProt Q9UGN5); test: PARP-2 inhibition assay (PARP-2 Chemiluminescent Assay Kit, BPS Bioscience); format: biochemical; settings: 10 nM compound
T1 construct: purchased BPS Bioscience 80552
T1 sequence (Q9UGN5 whole entry): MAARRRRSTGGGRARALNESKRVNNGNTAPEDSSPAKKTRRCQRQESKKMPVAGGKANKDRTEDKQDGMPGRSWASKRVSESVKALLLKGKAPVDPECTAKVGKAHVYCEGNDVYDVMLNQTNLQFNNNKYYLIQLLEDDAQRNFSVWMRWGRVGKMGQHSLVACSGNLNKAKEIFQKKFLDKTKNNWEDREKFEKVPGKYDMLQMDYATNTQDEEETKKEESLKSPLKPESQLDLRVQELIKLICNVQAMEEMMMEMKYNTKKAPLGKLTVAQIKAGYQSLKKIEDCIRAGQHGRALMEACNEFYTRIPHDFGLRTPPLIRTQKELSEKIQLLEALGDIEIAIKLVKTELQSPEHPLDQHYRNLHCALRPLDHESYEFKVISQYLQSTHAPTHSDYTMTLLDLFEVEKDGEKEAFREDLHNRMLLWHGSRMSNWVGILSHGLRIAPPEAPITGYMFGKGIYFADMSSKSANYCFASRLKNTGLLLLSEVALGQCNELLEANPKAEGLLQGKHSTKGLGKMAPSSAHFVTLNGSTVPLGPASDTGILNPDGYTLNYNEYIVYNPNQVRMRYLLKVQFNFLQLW
Experimental: (§1) The PARP-1 and PARP-2 inhibition assays were performed in outsourcing, by a CRO company, Shanghai Medicilon Inc. (Shanghai, China). […] Briefly, PARP-1 or PARP-2 biotinylated substrate was incubated with compounds or solvent control at varying concentrations and an assay buffer containing the PARP-1 or PARP-2 enzyme.

[1] = tested on: MDA-MB-436 (a BRCA-1-mutated breast cancer cell line); test: Cell proliferation assay, three-day, CellTiter-Glo, MDA-MB-436; format: cell-based; settings: Homo sapiens; for inhibition at 0.00508 µM: MDA-MB-436, MDA-MB-436, Conc. 0.00508 uM; for inhibition at 0.0152 µM: MDA-MB-436, MDA-MB-436, Conc. 0.0152 uM; for inhibition at 0.0457 µM: MDA-MB-436, MDA-MB-436, Conc. 0.0457 uM; for inhibition at 0.41 µM: MDA-MB-436, MDA-MB-436, Conc. 0.41 uM; for inhibition at 1.23 µM: MDA-MB-436, MDA-MB-436, Conc. 1.23 uM; for inhibition at 3.7 µM: MDA-MB-436, MDA-MB-436, Conc. 3.70 uM; for inhibition at 11.11 µM: MDA-MB-436, MDA-MB-436, Conc. 11.11 uM; for inhibition at 33.33 µM: MDA-MB-436, MDA-MB-436, Conc. 33.33 uM; for inhibition at 100 µM: MDA-MB-436, MDA-MB-436, Conc. 100.00 uM
Procedure, shortened: (§2)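 Luminescent ATP read-out (CellTiter-Glo, 60 min at room temperature) quantified viability after a 72 h compound exposure at 37 °C, 5% CO2. Compounds, diluted from DMSO stocks into growth medium, were added to cells plated the previous day.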

[2] = tested on: CAPAN-1 (a BRCA-2-mutated pancreatic cancer cell line); test: Cell proliferation assay, three-day, CellTiter-Glo, CAPAN-1; format: cell-based; settings: Homo sapiens; for inhibition at 0.00508 µM: CAPAN-1, Conc. 0.00508 uM; for inhibition at 0.0152 µM: CAPAN-1, Conc. 0.0152 uM; for inhibition at 0.0457 µM: CAPAN-1, Conc. 0.0457 uM; for inhibition at […]: CAPAN-1, Conc. 0.14 uM; for inhibition at 0.41 µM: CAPAN-1, Conc. 0.41 uM; for inhibition at 1.23 µM: CAPAN-1, Conc. 1.23 uM; for inhibition at 3.7 µM: CAPAN-1, Conc. 3.70 uM; for inhibition at 11.11 µM: CAPAN-1, Conc. 11.11 uM; for inhibition at 33.33 µM: CAPAN-1, Conc. 33.33 uM; for inhibition at 100 µM: CAPAN-1, Conc. 100.00 uM
Procedure, shortened: as §2

PARP-1 = biological target: T2, PARP-1 (Homo sapiens, UniProt P09874); test: PARP-1 inhibition assay (PARP-1 Chemiluminescent Assay Kit, BPS Bioscience); format: biochemical; settings: 10 nM compound
T2 construct: purchased BPS Bioscience 80569
T2 sequence (P09874 whole entry): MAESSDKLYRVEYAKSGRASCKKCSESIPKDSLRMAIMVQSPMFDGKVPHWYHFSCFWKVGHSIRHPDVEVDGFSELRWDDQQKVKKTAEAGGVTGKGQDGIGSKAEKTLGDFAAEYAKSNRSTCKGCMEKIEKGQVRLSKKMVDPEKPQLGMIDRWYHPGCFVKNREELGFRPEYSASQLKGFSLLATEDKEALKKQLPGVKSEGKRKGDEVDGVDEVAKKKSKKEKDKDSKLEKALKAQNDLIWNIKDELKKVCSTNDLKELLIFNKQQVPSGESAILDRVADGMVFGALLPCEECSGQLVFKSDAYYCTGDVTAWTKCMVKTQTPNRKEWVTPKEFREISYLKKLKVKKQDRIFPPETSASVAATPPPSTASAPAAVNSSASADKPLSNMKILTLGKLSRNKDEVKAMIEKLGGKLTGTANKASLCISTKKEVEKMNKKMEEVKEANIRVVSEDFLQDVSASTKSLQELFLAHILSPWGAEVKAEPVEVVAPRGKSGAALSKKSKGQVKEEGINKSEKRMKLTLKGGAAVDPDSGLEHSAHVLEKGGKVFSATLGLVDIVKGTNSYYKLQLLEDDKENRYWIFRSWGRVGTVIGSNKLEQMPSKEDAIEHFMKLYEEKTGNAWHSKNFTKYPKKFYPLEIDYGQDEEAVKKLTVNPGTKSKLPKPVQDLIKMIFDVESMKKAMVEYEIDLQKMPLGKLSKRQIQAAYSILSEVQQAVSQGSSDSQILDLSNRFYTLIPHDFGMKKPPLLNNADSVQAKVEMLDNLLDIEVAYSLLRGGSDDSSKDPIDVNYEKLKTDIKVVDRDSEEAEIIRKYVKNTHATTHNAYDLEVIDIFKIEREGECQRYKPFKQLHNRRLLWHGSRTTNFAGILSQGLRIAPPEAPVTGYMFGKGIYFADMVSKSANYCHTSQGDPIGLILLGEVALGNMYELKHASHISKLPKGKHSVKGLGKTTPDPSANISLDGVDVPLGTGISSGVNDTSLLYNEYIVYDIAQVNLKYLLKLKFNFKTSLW
Experimental: as §1

With `NCCCN1CCC(c2nc3c(C(N)=O)cccc3[nH]2)C1` (centres unmarked) [Compound 5cl, 2-(1-(3-Aminopropyl)pyrrolidin-3-yl)-1H-benzo[d]imidazole-4-carboxamide] the inhibition at 0.01 µM (PARP-2; supplement sheet, read-out: 10 nM inhibition% PAPR-2) was 46.4%, the inhibition at 0.01 µM (PARP-2; read-out: PARP-2 Inhibition % (10 nM)) was 46.4% and the inhibition at 0.00508 µM ([1]; replicate 1, read-out: Inh % 1) was 4.5%. The inhibition at 0.00508 µM ([1]; replicate 2, read-out: Inh % 2) was -3.7%, the inhibition at 0.0152 µM ([1]; replicate 1, read-out: Inh % 1) was 0.4% and the inhibition at 0.0152 µM ([1]; replicate 2, read-out: Inh % 2) was -4.9%. For the same compound, the inhibition at 0.0457 µM ([1]; replicate 1, read-out: Inh % 1) was -13.5%, the inhibition at 0.0457 µM ([1]; replicate 2, read-out: Inh % 2) was -10.1% and the inhibition at 0.41 µM ([1]; replicate 1, read-out: Inh % 1) was -7.3%. The inhibition at 0.41 µM ([1]; replicate 2, read-out: Inh % 2) was -7.6%, the inhibition at 1.23 µM ([1]; replicate 1, read-out: Inh % 1) was -9% and the inhibition at 1.23 µM ([1]; replicate 2, read-out: Inh % 2) was -8.7%. The inhibition at 3.7 µM ([1]; replicate 1, read-out: Inh % 1) was -7.4%, the inhibition at 3.7 µM ([1]; replicate 2, read-out: Inh % 2) was -9.8% and the inhibition at 11.11 µM ([1]; replicate 1, read-out: Inh % 1) was -5.4%. It also gave an inhibition at 11.11 µM ([1]; replicate 2, read-out: Inh % 2) of -5.2%, an inhibition at 33.33 µM ([1]; replicate 1, read-out: Inh % 1) of 1.9% and an inhibition at 33.33 µM ([1]; replicate 2, read-out: Inh % 2) of -7%. For the same compound, the inhibition at 100 µM ([1]; replicate 1, read-out: Inh % 1) was 7.4%, the inhibition at 100 µM ([1]; replicate 2, read-out: Inh % 2) was 2.1% and the IC50 ([1]; MDA-MB-436, 72 h, CellTiter-Glo, read-out: MDA-MB-436 IC50) was greater than 100 µM. It also gave an IC50 ([2]; CAPAN-1, 72 h, CellTiter-Glo, read-out: CAPAN-1 IC50) greater than 100 µM, an inhibition at 0.00508 µM ([2]; replicate 1, read-out: Inh % 1) of 0.0228% and an inhibition at 0.00508 µM ([2]; replicate 2, read-out: Inh % 2) of -3.6%. It also gave an inhibition at 0.0152 µM ([2]; replicate 1, read-out: Inh % 1) of -3.3%, an inhibition at 0.0152 µM ([2]; replicate 2, read-out: Inh % 2) of -4.8% and an inhibition at 0.0457 µM ([2]; replicate 1, read-out: Inh % 1) of 0.238%. The inhibition at 0.0457 µM ([2]; replicate 2, read-out: Inh % 2) was -10.3%, the inhibition at […] ([2]; replicate 1, read-out: Inh % 1) was 4.7% and the inhibition at […] ([2]; replicate 2, read-out: Inh % 2) was -9.8%. For the same compound, the inhibition at 0.41 µM ([2]; replicate 1, read-out: Inh % 1) was 1.3%, the inhibition at 0.41 µM ([2]; replicate 2, read-out: Inh % 2) was 5.2% and the inhibition at 1.23 µM ([2]; replicate 1, read-out: Inh % 1) was -5.5%. For the same compound, the inhibition at 1.23 µM ([2]; replicate 2, read-out: Inh % 2) was 3.8%, the inhibition at 3.7 µM ([2]; replicate 1, read-out: Inh % 1) was 4.6% and the inhibition at 3.7 µM ([2]; replicate 2, read-out: Inh % 2) was -3%. It also gave an inhibition at 11.11 µM ([2]; replicate 1, read-out: Inh % 1) of -2.8%, an inhibition at 11.11 µM ([2]; replicate 2, read-out: Inh % 2) of -3.6% and an inhibition at 33.33 µM ([2]; replicate 1, read-out: Inh % 1) of -7.9%. The inhibition at 33.33 µM ([2]; replicate 2, read-out: Inh % 2) was -7.8%, the inhibition at 100 µM ([2]; replicate 1, read-out: Inh % 1) was -10.8% and the inhibition at 100 µM ([2]; replicate 2, read-out: Inh % 2) was -6.6%. The inhibition at 0.01 µM (PARP-1; supplement sheet, read-out: 10 nM inhibition% PAPR-1) was 26.8% and the inhibition at 0.01 µM (PARP-1; read-out: PARP-1 Inhibition % (10 nM)) was 26.8%.
